The text below walks through data of patent US9884874B2, “Bromodomain-inhibiting compounds and pharmaceutical composition comprising same for preventing or treating a cancer” (KAINOS MEDICINE, INC., priority 2014, dated 2018).

The nature of series [1]: Human liver microsomal stability/clearance. As to conditions: human liver microsomes; first value of Human/Mouse cell; read-out: Liver microsomal clearance (Human). The format is in vitro ADME. The procedure:
Human and mouse liver microsomal clearance assays were carried out in CROWN Biosciences (Taicang, China). The human liver microsomes (Cat No. X008067, Lot No. KQB) and mouse liver microsomes (Cat No. M1000, Lot No. 1210302) were purchased from Celsis and Xenotech, respectively.
5 μL of test compound stock solution was diluted with 495 μL of 1:1 Methanol/Water (final concentration: 100 μM, 50% MeOH) and combined with 534 μL of the respective liver microsome solution (final concentration: 1.111 μM, 0.555% MeOH). The final concentration of the liver microsome solution was 0.7 mg protein/mL.
Incubations of the liver microsome solutions were performed in a 96 well plate at 37° C. 90 μL of the liver microsome solutions were added to Blank, and 90 μL of working solution of the test compound was added to all plates except the Blank.
All plates thus obtained were warmed in water bath at 37° C. for 10 min, and 10 μL of NADPH co-factor solution comprising 42 mg of β-nicotinamide adenine dinucleotide phosphate (Sigma Cat. No. N0505 Lot 020M7009V), 84 mg of isocitric acid (Sigma Cat. No. 11252 Lot 119K1099) and 0.478 mL of isocitric dehydrogenase (Sigma Cat. No. 12002 Lot 086K7055, 15 units/mg protein, warmed in water bath at 37° C. for 5 min was added to the plates. The resulting plates were incubated at 37° C. in the following order: T60 (The test compounds were incubated with the liver microsomal solution and NADPH for 60 min at 37° C.), T30 (such as for 30 min.), and T10 (such as for 10 min.). 300 μL of a cold (4° C.) stop solution (acetonitrile (ACN) including 500 nM of tolbutamide as internal standard) and 10 μL of NADPH co-factor solution to starting plate (T0: 100% of the parent compound without any reaction) were added to the plates. The reaction was stopped by adding 300 μL of the cold (4° C.) stop solution to the other plates in the following order: T10 first, then T30 and T60.
The samples were centrifuged at 4,000 rpm for 20 min and transferred to Bioanalytical Services for liquid chromatography-mass spectrometry (LC-MS)/MS (Waters UPLC/API 4000, 10 μL injection) analysis.

For series [2], the system named is SK-LU-1 (adenocarcinoma). The series can be described thus: Anti-proliferative activity, SK-LU-1. It is filed as cell-based. As to conditions: Homo sapiens, SKLU-1 (Adenocarcinoma), read-out: Cell proliferation, IC50.
In series [3] the test system is MDA-MB-435 (breast). The series can be described thus: Anti-proliferative activity, MDA-MB-435. It is filed as cell-based. As to conditions: Homo sapiens, read-out: Cell proliferation, IC50.
The nature of series [4]: Animal pharmacokinetics in ICR mice. The format is in vivo. As to conditions: mouse; for AUC / MRT / clearance / bioavailability: ICR, in vivo. The procedure:
Pharmacokinetics of the compounds of 1, 2, 7, 8 11 and 15 were evaluated in ICR mice (6˜8 weeks, 20˜25 g) following intravenous (IV) administration at 10 mg/kg and per oral (PO) administration at 10 mg/kg dose level, respectively. Especially, the additional dose level of Compound 1 was 30 mg/kg.
(§1) For serum compound analysis, blood samples were collected by cardiac puncture over 24 hr time course. 20 μL of spiked plasma was added into a 96-well plate, adding ten volumes of internal standard (IS) in acetonitrile (ACN) to the obtained precipitated protein mixed thoroughly, centrifuged at 4,000 rpm for 10 min. 150 μL of supernatant thus obtained was transferred to another pre-labeled 96-well plate, mixed with 150 μL of water. 5 μL or 10 μL of the mixture was injected into the LC-MS system under the following conditions:
(§2) Column: API-4000+Waters UPLC (TCLM08);
(§3) Lower limit of quantification (LLOQ) was at 1 ng/mL. Pharmacokinetic parameters of half-life (T1/2), clearance (CL), maximum plasma concentration (Cmax), mean residence time (MRT) and bioavailability (F %), plasma exposure (AUC) of the compound were calculated using Phoenix WinNonlin 6.3 (non-compartmental model).

Series [5] is described as follows: Pharmacokinetics in beagle dogs. The format is in vivo. As to conditions: plasma, dog, 3 mg/kg. The procedure: as §1, §2, §3
Further, pharmacokinetics of Compound 1 in dog was evaluated in beagle dogs following IV administration at 3 mg/kg and PO administration at 3 mg/kg dose level, respectively.

Series [6] has as its system MV4-11 human leukemia xenograft. Description: Tumor growth inhibition in MV4-11 human leukemia mouse xenograft. It is filed as in vivo, NOD/SCID mice. As to conditions: PO, 5 d ON/2 d Off × 2 (14 days). Here is the method:
Tumor growth inhibition (TGI) activities of compound 1 were tested in MV4-11 human leukemia mouse xenograft.
(§4) A total of 48 NOD/SCID female mice of 6-8 weeks age and weighing approximately 18 to 22 g, purchased from HFK (Beijing HFK Bio-Technology Co. Ltd.), were used for tumor inoculation.
The MV4-11 cell line was maintained in vitro in IMDM (Iscove's modified Dulbecco's media) supplemented with 10% fetal bovine serum at 37° C. in an atmosphere of 5% CO2 in air. The tumor cells were routinely subcultured twice weekly by trypsin-EDTA treatment. The cells growing in an exponential growth phase were harvested and counted for tumor inoculation. The treatments were started when the tumor size reached approximately 150-200 mm^3.
Each mouse was inoculated subcutaneously at the right flank with MV4-11 tumor cells (1×10^7 cells) in mixture of 100 ul PBS and 100 ul of Matrigel™ for tumor development. A total of […] mice were used for each group. The amounts of treated compounds are represented in milligram (mg) of compound per kilogram (kg) of animal body weight (mg/kg, mpk). Administration route of the test compound was PO (oral) injection. […]
Tumor sizes were measured using a caliper, once every 4 days, and the tumor volume was expressed in mm^3 using Equation 1: V=0.5a×b^2 [Equation 1] […]
(A xenograft is tissue or cells of one species grown in another, often human tumour cells in immunodeficient mice.)

A short description of series [7]: Body weight change in MV4-11 xenograft mice. The format is in vivo, NOD/SCID mice. As to conditions: 50 and 100 mpk, PO. Here is the method: as §4
Each mouse was inoculated subcutaneously at the right flank with MV4-11 tumor cells (1×10^7 cells) in mixture of 100 ul PBS and 100 ul of Matrigel™ for tumor development. A total of […] mice were used for each group. The amounts of treated compounds are represented in milligram (mg) of compound per kilogram (kg) of animal body weight (mg/kg, mpk). Administration route of the test compound was PO (oral) injection. Three groups, i.e., vehicle group (Control group), 50 mpk group (treatment at 50 mpk of compound 1 through PO injection) and 100 mpk group (treatment at 100 mpk of compound 1 through PO injection) of mice were used. The overall administration schedule was 2 cycles of treatment for 5 days (5 d ON), followed by 2 days of non-treatment (2 d OFF).

The term AUC denotes the area under the concentration-time curve, a measure of exposure. A low value points to low exposure. As usually defined, the MRT is the average time that molecules of a dose stay in the body. What is called clearance is the volume of plasma or blood freed of the substance per unit of time. On to `COc1ccc2c(c1)C(c1ccc(Cl)cc1)=N[C@@H](COS(C)(=O)=O)c1nnc(C)n1-2` [Compound 1, (R)-(6-(4-chlorophenyl)-8-methoxy-1-methyl-4H-benzo[f]-[1,2,4]triazolo[4,3-a][1,4]diazepin-4-yl)methyl methanesulfonate], for which, in series [1], the microsomal CLint at 1 µM came out at 2.3 µL/min/mg. The IC50 amounted to 6.96 µM in series [2] and 5.99 µM in series [3]. The AUC in series [4] (IV, 10 mg/kg) turned out to be 74 µM·h; in series [4] (IV, 30 mg/kg), 302 µM·h; in series [4] (PO, 10 mg/kg), 76 µM·h; in series [4] (PO, 30 mg/kg) it was 260 µM·h; in series [5] (IV), 19.7 µM·h; in series [5] (PO) it was 17.3 µM·h. Further, the MRT in series [4] (IV, 10 mg/kg) is 4.7 h; in series [4] (PO, 10 mg/kg), 6.2 h; in series [5] (IV) it was 4.9 h. The clearance turned out to be 5.1 mL/min/kg in series [4] (IV, 10 mg/kg); 3.7 mL/min/kg in series [4] (IV, 30 mg/kg); 5.6 mL/min/kg in series [5] (IV). Further, the bioavailability in series [4] (PO, 10 mg/kg) came out at 103%; in series [4] (PO, 30 mg/kg) it was 86.2%; in series [5] (PO), 92.3%. Besides, the “dose linearity in plasma exposure (in words)” value in series [4] (FIG. 1, 10 and 30 mg/kg) is “good dose linearity in plasma exposure”. Moreover, the “% TGI” value in series [6] (50 mpk) was determined as 77%; in series [6] (100 mpk), 84%. Further, the “BW change (%) (in words)” value in series [7] is “very low”.
